According to article PMC10534891, “Evaluation of 4-Aminoquinoline Hydrazone Analogues as Potential Leads for Drug-Resistant Malaria” (Molecules, 2023):

Experiments:
P. falciparum K1 strain [1] = test: P. falciparum K1 asexual growth inhibition, 48 h, SYBR Green-based plate reader assay; format: cell-based, Plasmodium falciparum; conditions: K1 strain, trophozoite stage, 48 h incubation; for IC50: Plasmodium falciparum, read-out: Plasmodium IC50 ± SE
Protocol: Sixteen 4-amino-6-methoxy-quinoline hydrazone compounds (see Figure S1, Supplementary Materials for full structures), with methyl and phenyl substituents at the 2-position (R = Me, Ph) and various substituents at R’ (Table 1), were tested for their antimalarial activities. A 1% parasitised culture at the trophozoite stage was treated with the compounds for 48 h at concentrations of 0.003050–200 µM (four-fold serial dilution) against the P. falciparum K1 strain, and the growth was measured using the SYBR Green-based plate reader assay.
(§1) In total, 1% of infected RBCs at the ring or trophozoites stage was exposed to nine dilutions (four-fold serial dilution) of compounds from 50 mM stock solutions in DMSO. A total of 100 µL of culture volume was added in 96-well plates with 100 µL drug dilutions. Plates were either incubated for 48 h or 72 h at 37 °C, 5% CO2, 5% O2 in N2. Following the incubation, 150 µL of the medium was carefully removed and 150 µL of the 5× SYBR Green solution (prepared by adding 2 µL of 10,000× SYBR Green in 4 mL of PBS) was added to each well. Plates were kept in the dark for 45 min. Fluorescence intensity was measured using a microplate reader (Genius Tecan) with an excitation of 485 nm and an emission of 535 nm.
(§2) IC50 values were determined using Graph Pad Prism 5.0. Values were calculated using non-linear regression by using log-transformed drug concentration plotted against dose–response. Parasitaemia was calculated and normalised relative to the response on the controls (cultures without drug).

P. falciparum K1 strain [2] = test: P. falciparum K1 dose-response, 72 h, SYBR Green-based plate reader assay; format: cell-based; conditions: Plasmodium falciparum
Protocol: We set up drug efficacy assays for the eight lead compounds 1–5, 12–14 (selected based on the best antimalarial activities) (Table 1), with 72 h incubation on parasitised culture. A dose–response experiment was initiated on 1% synchronous culture at the ring stages of the P. falciparum K1 strain. The selected compounds were tested at three-fold serial dilutions from 6.86 to 5000 nM. […] The selectivity indices (IC50 human cells/IC50 parasites) were calculated based on the 72 h exposure studies and are presented in Table 2.
as §1, §2

[3] = MTT cytotoxicity assay, HepG2; format: cell-based, Human; conditions: human, HepG2 cells; MTT, 5 days; read-out: Cell Toxicity IC50 ± SE HepG2
Protocol: (§3) An MTT (3-(4,5-dimethylthiazol-2-yl)-2,5-diphenyl tetrazolium bromide) assay was performed to investigate the toxicity of the 4-aminoquinoline hydrazone compounds. HepG2 and MDBK cells were incubated with a two-fold serial dilution at dose ranges from 0.39 to 25 µM for 5 days.
(§4) Human hepatoma (HepG2) and the Madin–Darby bovine kidney (MDBK) cell lines were purchased from American Type Culture Collection (ATCC), USA. The MDBK cell line was cultured with Dulbecco’s Modified Eagle’s Medium (DMEM) containing 4.5 g/L (+)-D-glucose and L-glutamine, while the HepG2 cell line was cultured with RPMI 1640 containing 2 mM L-glutamine and HEPES. The culture medium was supplemented with 10% Fetal Bovine Serum (FBS) and 1% penicillin. Cells were maintained in the presence of 5% CO2 atmosphere at 37 °C. The assay was carried out on a 96-well plate, with each well containing 4 × 10^3 cells. Plates were firstly incubated for 24 h at 37 °C to ensure cell adherence. The cells were then treated with 100 µL of the drug solution prepared at various concentrations and further incubated for 5 days. After the incubation period, 50 µL of the MTT (3-(4,5-dimethylthiazol-2-yl)-2,5-diphenyltetrazolium bromide, Sigma, UK) solution was added to each well and incubated for a further 3 h. The MTT solution and medium were aspirated, 150 µL of DMSO was added to each well, and the results were read on the Ascent plate reader.

HepG2 cells = test: MTT cytotoxicity assay, HepG2; format: cell-based, Human; conditions: HepG2 IC50 (5 days) / K1 72 h IC50; IC50 = 25 μM assumed for compound 13
Protocol: as §3, §4

[4] = MTT cytotoxicity assay, MDBK; format: cell-based, bovine; conditions: bovine, MDBK cells; MTT, 5 days; read-out: Cell Toxicity IC50 ± SE MDBK
Protocol: as §3, §4

MDBK cells = test: MTT cytotoxicity assay, MDBK; format: cell-based, bovine; conditions: MDBK IC50 (5 days) / K1 72 h IC50; IC50 = 25 μM assumed for compounds 5 and 13
Protocol: as §3, §4

P. falciparum 3D7 = P. falciparum 3D7 dose-response, 72 h, SYBR Green-based plate reader assay; format: cell-based; conditions: Plasmodium falciparum, ring stage, read-out: 3D7 IC50 ± SE
Protocol: (§5) The lead compounds 1 and 2 were further evaluated against the chloroquine-resistant P. falciparum Dd2 strain and chloroquine-sensitive P. falciparum 3D7. The drug activity assay was initiated on 1% infected blood at ring stages of the parasites at four-fold serial dilution from 0.00305 to 200 µM. The growth was measured after 72 h using an SYBR Green-based plate reader assay.
as §1

P. falciparum Dd2 strain = test: P. falciparum Dd2 dose-response, 72 h, SYBR Green-based plate reader assay; format: cell-based; conditions: Plasmodium falciparum, ring stage, read-out: Dd2 IC50 ± SE
Protocol: as §5, §1

P. yoelii NL = system: P. yoelii NL
Protocol: We next assessed the antimalarial activity of compound 2 in vivo within a P. yoelii NL murine model of blood-stage malaria. […] Two dosages of the drug were tested, 5 mg/kg and 20 mg/kg (intravenous tail vein injection), while another group of mice was administered with the drug vehicle alone (Figure 3). The lead compound 2 was injected once a day for 4 days, starting at day 11 when the infection level reached ~5% parasitaemia. Mice were monitored for a total of 20 days in order to detect signs of infection rebound or eventual toxicity.
C57BL/6 mice were purchased from Charles River, UK, and were maintained at the University of Manchester in individually ventilated cages. A total of six mice were used for this experiment and kept in the cage (two in each cage) with randomisation of mice given antimalarial drugs and vehicle control. The mice were maintained in individually ventilated cages with food and water ad libitum. Male and females were kept within separate cages during the course of the experiment. The mice generally weighed 18–20 g at the start of the experiment. Cryopreserved P. yoelii NL parasites were passed once through mice before the infection experiment. Male/female mice 6–10 weeks in age were infected with 1 × 10^4 parasitised red blood cells (pRBCs) via intravenous injection in the tail vein. Parasitaemia growth was monitored via Giemsa-stained blood smears. Three groups of mice (placebo, drug dose of 5 mg/kg or 20 mg/kg) were used for this experiment. Compound 2 was injected once a day for 4 days starting at the day the infection level reached ~5% parasitaemia. After the injection, mice were monitored for 20 days to detect eventual signs of both infection rebound and toxicity.

[5] = system: P. falciparum K1 cultures; test: Time-course assay, SYBR Green flow cytometer method; format: cell-based, Plasmodium falciparum; conditions: IC50 doses, 24, 48, 72 h
Protocol: A panel of compounds were selected based on activity and progressed in the time-course assay to define the activity timelines of the compounds. The assay was performed on 1% unsynchronised P. falciparum K1 cultures treated with previously determined IC50 (Table 1) doses of the lead compounds for 24, 48, and 72 h. […] It was also observed that the activity of the compounds became more pronounced as the time progressed up until 72 h of exposure.
The time-course assay was used to define the activity timelines of the 4-aminoquinoline hydrazone compounds. Parasite growth of K1 strain P. falciparum in the presence of 4-aminoquinoline hydrazone compounds was assessed on asynchronous culture. The growth impairment of K1 culture was initiated at 1% parasitaemia for 24, 48, and 72 h. The assay was analysed by flow cytometry as described below.
Following drug efficacy experiments, 100 µL from the control and drug-treated samples on a 96-well plate were transferred to a micro-centrifuge tube containing 1 mL of PBS. The samples were centrifuged at 1200 rpm for 2 min. […] The pellet was re-suspended in PBS (1 mL) and parasitaemia was determined by SYBR Green fluorescence using the FITC channel of the BD FACs Verse flow cytometer system (Blue laser, excitation laser line 488 nM Exmax 494/EMmax 520 nM) and cell size (forward scatter, FSC-A). […]

P. falciparum K1 strain [6] = test: Stage specificity assay; format: cell-based, Plasmodium falciparum; conditions: 50–100 times IC50, 24 h exposure, wash-out, further 24 h
Protocol: The stage specificity was evaluated by conducting drug susceptibility experiments on synchronous cultures either at early rings or schizonts stages (as detailed in the Section 4). […] Cultures were exposed to drug treatment for 24 h, after which the compounds were washed out and incubated in complete RPMI medium for a further 24 h.
P. falciparum K1 was synchronised twice with 5% sorbitol at 0 h and 31 h to obtain early rings (up to 3 h old). In order to obtain late trophozoites to early schizonts, the culture was synchronised twice at 0 h and 6 h. Each synchronous stage was diluted to 1% parasitaemia. […] The dilution ranged from 1.6 to 100× fold of the previously determined IC50 of each compound in a standard 48 h assay. After a 24 h incubation period, the plates were washed 4 times resulting in about a 100-fold dilution of the free compound. The plates were further incubated for an additional 24 h at 37 °C and analysed using SYBR Green staining assays as previously described.

[7] = ring stage, 72 h incubation, read-out: Plasmodium IC50 ± SE

SMILES	IC50 (P. falciparum K1 strain [1])	IC50 (P. falciparum K1 strain [2]; [7])	IC50 at 5 days [3]	Selectivity Indices (HepG2) (HepG2 cells)	IC50 at 5 days [4]	Selectivity Indices (MDBK) (MDBK cells)	other results
COc1ccc2nc(C)cc(N/N=C/c3ccc(F)cc3)c2c1 [Compound 1]	0.612 ± 0.35 µM	0.0257 µM	0.872 ± 0.79 µM	34	3.77 ± 1.5 µM	147	IC50 (P. falciparum K1 strain [2]; 72 h, read-out: IC50): 0.025 µM; IC50 (P. falciparum 3D7): 0.183 µM; IC50 (P. falciparum Dd2 strain): 0.133 µM
COc1ccc2nc(C)cc(NN=Cc3ccccc3)c2c1 [Compound 2, 4-(2-benzylidenehydrazinyl)-6-methoxy-2-methylquinoline]	2.26 ± 2.2 µM	0.0329 ± 0.007 µM	1.9 ± 0.11 µM	58	3.44 ± 2.7 µM	101	IC50 (P. falciparum K1 strain [2]; 72 h, read-out: IC50): 0.032 µM; IC50 (P. falciparum 3D7): 0.0554 µM; IC50 (P. falciparum Dd2 strain): 0.0244 µM; Signs of toxicity in treated mice (P. yoelii NL; 5 and 20 mg/kg i.v., monitored over three weeks): no detectable signs of significant toxicity; Effect on parasitaemia, 20 mg/kg and 5 mg/kg (P. yoelii NL; P. yoelii NL-treated mice): suppression of parasitaemia; Parasitaemia after drug treatment was suspended (P. yoelii NL; mice, 5 mg/kg and 20 mg/kg i.v. once a day for 4 days): less than 4%; Effect on parasitaemia, 5 mg/kg (P. yoelii NL; mice, 5 mg/kg i.v. once a day for 4 days): delayed activity
COc1ccc2nc(C)cc(N/N=C/c3cccnc3)c2c1 [Compound 3]	3.29 ± 1.6 µM	0.175 ± 0.04 µM	3 ± 0.27 µM	17	7.34 ± 7.6 µM	42	Onset of activity in time-course [5]: delayed activity
COc1ccc2nc(C)cc(N/N=C/c3cccc(OC)c3O)c2c1 [Compound 5]	3.82 µM	0.174 ± 0.03 µM	6.73 ± 0.73 µM	39	> 25 µM	>143	Inhibition of parasitaemia growth, schizont stage (P. falciparum K1 strain [6]): more than 25%
COc1ccc2nc(C)cc(N/N=C/c3c[nH]cn3)c2c1 [Compound 6]	48.8 µM	–	7.26 ± 1 µM	–	11.7 ± 2.5 µM	–	–
COc1ccc2nc(C)cc(N/N=C/c3ccc([N+](=O)[O-])cc3)c2c1 [Compound 7]	20.1 µM	–	1.69 µM	–	6.68 ± 1.7 µM	–	–
COc1ccc2nc(C)cc(N/N=C/c3ccc(O)cc3)c2c1 [Compound 8]	22.3 µM	–	1.97 ± 0.42 µM	–	3.73 ± 1.2 µM	–	–
COc1ccc2nc(C)cc(N/N=C/c3ccc(C(=O)O)cc3)c2c1 [Compound 9]	> 200 µM	–	> 25 µM	–	> 25 µM	–	Plasmodium IC50 ± SE (P. falciparum K1 strain [1]): inactive
COc1ccc2nc(C)cc(N/N=C/c3cccc(O)c3)c2c1 [Compound 10]	18.9 µM	–	2.64 ± 0.2 µM	–	9.71 ± 3.5 µM	–	–
COc1ccc2nc(C)cc(N/N=C/c3cc(O)cc(O)c3)c2c1 [Compound 11]	35.9 ± 43 µM	–	11.1 ± 2.9 µM	–	> 25 µM	–	–
COc1ccc2nc(-c3ccccc3)cc(N/N=C/c3cccc(OC)c3O)c2c1 [Compound 12]	5.67 ± 13 µM	0.133 ± 0.06 µM	1.8 ± 0.78 µM	14	6.6 µM	50	–
COc1ccc2nc(-c3ccccc3)cc(N/N=C/c3ccc([N+](=O)[O-])cc3)c2c1 [Compound 14]	2.2 ± 1.5 µM	0.176 ± 0.06 µM	0.89 ± 0.13 µM	5	4.24 ± 1 µM	–	Inhibition of parasitaemia growth, schizont stage (P. falciparum K1 strain [6]): more than 25%
COc1ccc2nc(-c3ccccc3)cc(N/N=C/c3c[nH]cn3)c2c1 [Compound 15]	28.3 ± 29 µM	–	2.21 ± 0.15 µM	–	9.31 ± 3.5 µM	–	–
COc1ccc2nc(-c3ccccc3)cc(N/N=C/c3ccc(N(C)C)cc3)c2c1 [Compound 16]	8.06 ± 4.5 µM	–	4.15 ± 2.4 µM	–	6.24 µM	–	–
